Patent publication US7514448B2, “Azaindoles useful as inhibitors of rock and other protein kinases” (Vertex Pharmaceuticals Incorporated, priority 2004, dated 2009)

Assays:
[1] = molecular target: PKA (Homo sapiens, UniProt P17612); assay: PKA inhibition assay, coupled enzyme; format: biochemical; conditions: average Ki if more than one determined
Experimental: Compounds were screened for their ability to inhibit PKA using a standard coupled enzyme assay (Fox et al., Protein Sci, 1998, 7, 2249). Assays were carried out in a mixture of 100 mM HEPES (pH 7.5), 10 mM MgCl2, 25 mM NaCl, 1 mM DTT and 3% DMSO. Final substrate concentrations in the assay were 50 μM ATP (Sigma Chemicals) and 80 μM peptide (Kemptide, American Peptide, Sunnyvale, Calif.). Assays were carried out at 30° C. and 18 nM PKA. Final concentrations of the components of the coupled enzyme system were 2.5 mM phosphoenolpyruvate, 300 μM NADH, 30 μg/ml pyruvate kinase and 10 μg/ml lactate dehydrogenase.
An assay stock buffer solution was prepared containing all of the reagents listed above, with the exception of ATP, and the test compound of the present invention. […] The plate was preincubated for 10 minutes at 30° C. and the reaction initiated by addition of 5 μl of ATP (final concentration 50 μM). Initial reaction rates were determined with a Molecular Devices SpectraMax Plus plate reader over a 15 minute time course. IC50 and Ki data were calculated from non-linear regression analysis using the Prism software package (GraphPad Prism version 3.0a for Macintosh, GraphPad Software, San Diego Calif., USA).

[2] = molecular target: ROCK (Homo sapiens, UniProt Q13464); assay: ROCK radioactive assay ("33P"); format: biochemical; conditions: radioactive assay; average Ki if more than one determined; read-out: ROCK 33P Ki
Description: If more than one value of Ki has been determined, the average Ki is indicated. If no value is indicated, then the Ki was not determined.

Sequence of ROCK (Q13464 whole entry): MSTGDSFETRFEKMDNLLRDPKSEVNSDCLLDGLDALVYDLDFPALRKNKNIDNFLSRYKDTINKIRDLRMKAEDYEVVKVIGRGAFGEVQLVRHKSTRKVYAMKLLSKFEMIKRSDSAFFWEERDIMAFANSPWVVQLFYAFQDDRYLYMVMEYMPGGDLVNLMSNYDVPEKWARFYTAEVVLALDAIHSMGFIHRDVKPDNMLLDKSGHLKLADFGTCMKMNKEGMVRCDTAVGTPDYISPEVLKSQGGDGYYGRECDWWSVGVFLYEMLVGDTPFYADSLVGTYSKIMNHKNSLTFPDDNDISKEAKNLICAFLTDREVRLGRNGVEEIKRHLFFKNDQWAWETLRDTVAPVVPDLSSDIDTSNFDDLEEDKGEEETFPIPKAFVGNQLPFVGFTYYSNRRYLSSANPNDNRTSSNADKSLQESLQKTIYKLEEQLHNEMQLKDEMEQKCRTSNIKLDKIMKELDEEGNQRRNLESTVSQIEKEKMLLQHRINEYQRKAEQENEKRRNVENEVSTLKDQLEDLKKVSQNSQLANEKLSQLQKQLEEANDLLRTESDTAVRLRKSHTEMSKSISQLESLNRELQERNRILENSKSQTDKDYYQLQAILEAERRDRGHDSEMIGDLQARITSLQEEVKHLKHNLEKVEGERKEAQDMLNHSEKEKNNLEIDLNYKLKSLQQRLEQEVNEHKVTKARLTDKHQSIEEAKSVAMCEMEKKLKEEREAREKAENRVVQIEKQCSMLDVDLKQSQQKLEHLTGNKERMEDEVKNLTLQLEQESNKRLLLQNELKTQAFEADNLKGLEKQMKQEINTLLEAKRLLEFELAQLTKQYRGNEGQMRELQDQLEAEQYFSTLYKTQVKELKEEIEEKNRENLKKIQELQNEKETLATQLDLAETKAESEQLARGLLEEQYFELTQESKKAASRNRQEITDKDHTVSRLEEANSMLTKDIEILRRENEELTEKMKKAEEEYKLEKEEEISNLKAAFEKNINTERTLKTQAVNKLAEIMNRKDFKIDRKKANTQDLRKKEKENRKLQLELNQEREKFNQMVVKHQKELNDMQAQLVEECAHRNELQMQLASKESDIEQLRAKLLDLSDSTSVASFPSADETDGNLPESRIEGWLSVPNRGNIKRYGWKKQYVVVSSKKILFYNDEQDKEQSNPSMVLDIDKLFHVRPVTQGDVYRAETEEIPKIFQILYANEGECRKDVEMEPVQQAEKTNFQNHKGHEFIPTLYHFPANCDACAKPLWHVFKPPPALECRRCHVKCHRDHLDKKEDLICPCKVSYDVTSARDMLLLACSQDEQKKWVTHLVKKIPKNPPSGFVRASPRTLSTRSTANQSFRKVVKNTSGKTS

Compound | Ki [1] [nM] | Ki [2] [nM]
O=C(NCc1cccc(S(=O)(=O)N2CCOCC2)c1)c1csc(-c2c[nH]c3ncccc23)c1 [II-130] | 500 to 5000 | < 500
CS(=O)(=O)Nc1cccc(CC(=O)Nc2nc(-c3c[nH]c4ncc(O)cc34)cs2)c1 [II-132] | 500 to 5000 | < 500
N#CC1(C(=O)Nc2nc(-c3c[nH]c4ncccc34)cs2)CC1 [II-133] | < 500 | < 500
O=C(Cc1cccc(OCCCC2CCNCC2)c1)Nc1nc(-c2c[nH]c3ncc(F)cc23)cs1 [II-135] | < 500 | < 500
CN1CCN(CCOc2cccc(CC(=O)Nc3nc(-c4c[nH]c5ncc(F)cc45)cs3)c2)CC1 [II-136] | 500 to 5000 | < 500
CN1CCN(CCCOc2cccc(CC(=O)Nc3nc(-c4c[nH]c5ncc(F)cc45)cs3)c2)CC1 [II-137] | 500 to 5000 | < 500
COCC(=O)Nc1nc(-c2c[nH]c3ncccc23)cs1 [II-142] | 500 to 5000 | < 500
O=C1CC[C@@H](C(=O)Nc2nc(-c3c[nH]c4ncccc34)cs2)O1 [II-146] | 500 to 5000 | < 500
O=C1NCC(C(=O)Nc2nc(-c3c[nH]c4ncccc34)cs2)N1 (stereo not drawn) [II-147] | < 500 | < 500
O=C1CC[C@@H](C(=O)Nc2nc(-c3c[nH]c4ncccc34)cs2)N1 [II-148] | < 500 | < 500
CC(=O)NCC(=O)Nc1nc(-c2c[nH]c3ncccc23)cs1 [II-149] | 500 to 5000 | < 500
COc1ccc(CC(=O)Nc2nc(-c3c[nH]c4ncc(F)cc34)cs2)c(Cl)c1 [II-150] | < 500 | < 500
CS(=O)(=O)Nc1ccc(F)c(CC(=O)Nc2nc(-c3c[nH]c4ncc(F)cc34)cs2)c1 [II-151] | < 500 | < 500
O=C1C[C@H](C(=O)Nc2nc(-c3c[nH]c4ncccc34)cs2)N1 [II-152] | < 500 | < 500
O=C1CCC(C(=O)Nc2nc(-c3c[nH]c4ncccc34)cs2)N1 (stereo not drawn) [II-153] | 500 to 5000 | < 500
O=C(Nc1nc(-c2c[nH]c3ncccc23)cs1)C1CCCO1 (stereo not drawn) [II-154] | < 500 | < 500
O=C1CC[C@H](C(=O)Nc2nc(-c3c[nH]c4ncccc34)cs2)O1 [II-155] | < 500 | < 500
O=C(CO)Nc1nc(-c2c[nH]c3ncccc23)cs1 [II-157] | 500 to 5000 | < 500
O=C(Nc1nc(-c2c[nH]c3ncccc23)cs1)C1(O)CC1 [II-158] | < 500 | < 500
CC(C)CC(=O)C(=O)Nc1nc(-c2c[nH]c3ncccc23)cs1 [II-160] | < 500 | < 500
CS(=O)(=O)CC(=O)Nc1nc(-c2c[nH]c3ncccc23)cs1 [II-161] | < 500 | < 500
CC(=O)NCCC(=O)Nc1nc(-c2c[nH]c3ncccc23)cs1 [II-164] | 500 to 5000 | < 500

Compound | Ki [1] [nM] | Ki [2] [nM]
CN1CCN(CCCS(=O)(=O)Nc2cccc(CC(=O)Nc3nc(-c4c[nH]c5ncccc45)cs3)c2)CC1 [II-167] | < 500 | < 500
O=C(Cc1cccc(NS(=O)(=O)CCCN2CCCCC2)c1)Nc1nc(-c2c[nH]c3ncccc23)cs1 [II-168] | < 500 | < 500
O=C(Cc1cccc(NS(=O)(=O)CCCN2CCOCC2)c1)Nc1nc(-c2c[nH]c3ncccc23)cs1 [II-169] | < 500 | < 500
O=C(Nc1nc(-c2c[nH]c3ncccc23)cs1)[C@@H]1CCCN1 [II-171] | < 500 | < 500
O=C(Nc1nc(-c2c[nH]c3ncccc23)cs1)C1CCOC1 (stereo not drawn) [II-172] | < 500 | < 500
O=C(Nc1nc(-c2c[nH]c3ncccc23)cs1)C1CCCNC1 (stereo not drawn) [II-173] | < 500 | < 500
O=C(Nc1nc(-c2c[nH]c3ncccc23)cs1)C1CCNCC1 [II-174] | 500 to 5000 | < 500
O=C(Nc1nc(-c2c[nH]c3ncccc23)cs1)C1CCOCC1 [II-175] | < 500 | < 500
NCCC(=O)Nc1nc(-c2c[nH]c3ncccc23)cs1 [II-180] | < 500 | < 500
O=C(c1nc(-c2c[nH]c3ncccc23)cs1)N1CCNCC1 [II-181] | < 500 | < 500
C[C@@H](CO)NC(=O)c1nc(-c2c[nH]c3ncccc23)cs1 [II-182] | 500 to 5000 | < 500
CC(C)C(CO)NC(=O)c1nc(-c2c[nH]c3ncccc23)cs1 (stereo not drawn) [II-183] | 500 to 5000 | < 500
O=C(NC1CCNCC1)c1nc(-c2c[nH]c3ncccc23)cs1 [II-187] | < 500 | < 500
NCCC(C(=O)Nc1nc(-c2c[nH]c3ncccc23)cs1)c1ccc(F)cc1F (stereo not drawn) [II-191] | < 500 | < 500
c1cnc2[nH]cc(-c3csc(NCCCN4CCOCC4)n3)c2c1 [II-197] | 500 to 5000 | 500 to 5000
CN1CCN(CCCNc2nc(-c3c[nH]c4ncccc34)cs2)CC1 [II-198] | 500 to 5000 | 500 to 5000
c1coc(CNc2nc(-c3c[nH]c4ncccc34)cs2)c1 [II-199] | 500 to 5000 | < 500
c1cnc2[nH]cc(-c3csc(NCC4CCCO4)n3)c2c1 (stereo not drawn) [II-200] | 500 to 5000 | 500 to 5000
CN1CCN(CCCN(C(=O)Cc2ccccc2)c2nc(-c3c[nH]c4ncccc34)cs2)CC1 [II-201] | < 500 | < 500
COc1cccc(CC(=O)N(CCCN2CCN(C)CC2)c2nc(-c3c[nH]c4ncccc34)cs2)c1 [II-202] | < 500 | < 500
CN1CCN(CCCN(C(=O)Cc2cccc(NS(C)(=O)=O)c2)c2nc(-c3c[nH]c4ncccc34)cs2)CC1 [II-203] | < 500 | < 500

Now from value to compound:

Ki [1] [nM] | Ki [2] [nM] | Compound
< 500 |  | COc1cccc(CC(=O)Nc2nc(-c3c[nH]c4ncccc34)cs2)c1 [I-2]
< 500 |  | O=C(Cc1cccc(O)c1)Nc1nc(-c2c[nH]c3ncccc23)cs1 [I-12]
< 500 | < 500 | O=C(Cc1ccccc1)Nc1nc(-c2c[nH]c3ncc(O)cc23)cs1 [II-131]
500 to 5000 | < 500 | CC(=O)Nc1nc(-c2c[nH]c3ncccc23)cs1 [II-134]
500 to 5000 | < 500 | CC(O)C(=O)Nc1nc(-c2c[nH]c3ncccc23)cs1 (stereo not drawn) [II-143]
500 to 5000 | < 500 | CO[C@@H](C)C(=O)Nc1nc(-c2c[nH]c3ncccc23)cs1 [II-144]
500 to 5000 | < 500 | CC(=O)N[C@@H](C)C(=O)Nc1nc(-c2c[nH]c3ncccc23)cs1 [II-145]
500 to 5000 | < 500 | CC(=O)N[C@H](C)C(=O)Nc1nc(-c2c[nH]c3ncccc23)cs1 [II-156]
< 500 | < 500 | CC(C)C(O)C(=O)Nc1nc(-c2c[nH]c3ncccc23)cs1 (stereo not drawn) [II-159]
500 to 5000 | < 500 | CCC(=O)Nc1nc(-c2c[nH]c3ncccc23)cs1 [II-163]
< 500 | < 500 | NCC(=O)Nc1nc(-c2c[nH]c3ncccc23)cs1 [II-165]
< 500 | < 500 | CC(C)C[C@H](N)C(=O)Nc1nc(-c2c[nH]c3ncccc23)cs1 [II-166]
< 500 | < 500 | N[C@@H](Cc1ccccc1)C(=O)Nc1nc(-c2c[nH]c3ncccc23)cs1 [II-176]
< 500 | < 500 | N[C@H](Cc1ccccc1)C(=O)Nc1nc(-c2c[nH]c3ncccc23)cs1 [II-177]
< 500 | < 500 | CN[C@@H](Cc1ccccc1)C(=O)Nc1nc(-c2c[nH]c3ncccc23)cs1 [II-178]
< 500 | < 500 | CNCC(=O)Nc1nc(-c2c[nH]c3ncccc23)cs1 [II-179]
< 500 | < 500 | O=C(N[C@H](CO)c1ccccc1)c1nc(-c2c[nH]c3ncccc23)cs1 [II-184]
500 to 5000 | < 500 | O=C(N[C@@H](CO)c1ccccc1)c1nc(-c2c[nH]c3ncccc23)cs1 [II-185]
500 to 5000 | < 500 | O=C(NC1CCN(Cc2ccccc2)C1)c1nc(-c2c[nH]c3ncccc23)cs1 (stereo not drawn) [II-186]
< 500 | < 500 | O=C(CNCc1ccccc1)Nc1nc(-c2c[nH]c3ncccc23)cs1 [II-188]
< 500 | < 500 | NCCC(C(=O)Nc1nc(-c2c[nH]c3ncccc23)cs1)c1ccccc1 (stereo not drawn) [II-189]
< 500 | < 500 | NCCC(C(=O)Nc1nc(-c2c[nH]c3ncccc23)cs1)c1ccc(F)cc1 (stereo not drawn) [II-190]
< 500 | < 500 | NCCC(C(=O)Nc1nc(-c2c[nH]c3ncccc23)cs1)c1ccccc1Cl (stereo not drawn) [II-192]
< 500 | < 500 | CN(C)S(=O)(=O)Nc1cccc(CC(=O)Nc2nc(-c3c[nH]c4ncccc34)cs2)c1 [II-193]
< 500 | < 500 | NCC(C(=O)Nc1nc(-c2c[nH]c3ncccc23)cs1)c1ccccc1Cl (stereo not drawn) [II-194]
< 500 | < 500 | NCC(C(=O)Nc1nc(-c2c[nH]c3ncccc23)cs1)c1cccc(Cl)c1Cl (stereo not drawn) [II-195]
< 500 | < 500 | NCC(C(=O)Nc1nc(-c2c[nH]c3ncccc23)cs1)c1ccc(F)cc1Cl (stereo not drawn) [II-196]
